One assay relates to B. Cereus ATCC 11778. The experiment in a line: MIC, NCCLS broth microdilution. Particulars: Bacillus cereus. Type of assay: cell-based, Bacillus cereus. The procedure, abridged:
(§1)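 MIC determined by broth microdilution in microtiter plates following NCCLS guidelines (documents M7-A4, M11-A4 and M27-T).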

For assay [1], the system named is E. faecium ATCC 51559 (vancomycin resistant strain, VRE). The experiment in a line: MIC, NCCLS broth microdilution. The format is cell-based, Enterococcus faecium. Particulars: Enterococcus faecium, read-out: Minimum Inhibitory Concentration (MIC). The source says: (§2) In vitro biological activity data were collected for a variety of microorganisms, including Bacillus cereus (ATCC 11778), Staphylococcus aureus (ATCC 27660 (a methicillin resistant strain (MRSA), ATCC 33591 and ATCC 43300); ATCC 13709, a methicillin sensitive strain (MSSA)); Streptococcus pneumoniae (ATCC 51422, a penicillin resistant strain (PRSP)), Enterococcus faecium (ATCC 51559, a vancomycin resistant strain (VRE)), and Staphylococcus epidermidis (ATCC 700586, a methycillin resistant strain (MRSE)). Additionally, antifungal activity data were collected for Candida albicans (ATCC 38247). Minimal inhibition concentrations (MIC's) were determined using the National Committee for Clinical Laboratory Standards (NCCLS) broth microdilution assay in microtiter plates, as set forth in: (1) the guidelines of the National Committee for Clinical Laboratory Standards (NCCLS) Document M7-A4 (NCCLS, 1997); (2) the guidelines of the National Committee for Clinical Laboratory Standards (NCCLS) Document M11-A4 (NCCLS, 1997); and (3) the guidelines and reference method of the National Committee for Clinical Laboratory Standards (NCCLS) Document M27-T (NCCLS, 1995). For antifungal essays, the method recommended in Murray, PR., 1995 Manual of Clinical Microbiology (ASM Press, Washington, D.C.), was employed.

In assay [2] the test system is S. aureus ATCC 13709 (methicillin sensitive strain, MSSA). The experiment in a line: MIC, NCCLS broth microdilution. Particulars: Staphylococcus aureus, read-out: Minimum Inhibitory Concentration (MIC). The format is cell-based, Staphylococcus aureus. The essentials: as §1
For orientation: Dilution methods test growth across graded concentrations, often in twofold steps.

Assay [3] has as its system S. aureus ATCC 27660 (methicillin resistant strain, MRSA). The experiment in a line: MIC, NCCLS broth microdilution. The following applies: Staphylococcus aureus, read-out: Minimum Inhibitory Concentration (MIC). The format is cell-based, Staphylococcus aureus. The procedure, abridged: as §1
Another assay has as its system S. aureus ATCC 33591. In words: MIC, NCCLS broth microdilution. The format is cell-based, Staphylococcus aureus. Particulars: Staphylococcus aureus. The procedure, abridged:
as §1

The next assay concerns S. aureus ATCC 43300. The experiment in a line: MIC, NCCLS broth microdilution. Type of assay: cell-based. The following applies: Staphylococcus aureus, ATCC43300, read-out: Minimum Inhibitory Concentration (MIC).
Text: as §2

Assay [4] has as its system S. epidermidis ATCC 700586 (methycillin resistant strain, MRSE). In words: MIC, NCCLS broth microdilution. The format is cell-based, Staphylococcus epidermidis. The following applies: Staphylococcus epidermidis, read-out: Minimum Inhibitory Concentration (MIC).
Text: as §2

Assay [5] concerns S. pneumoniae ATCC 51422 (penicillin resistant strain, PRSP). The experiment in a line: MIC, NCCLS broth microdilution. Type of assay: cell-based, Streptococcus pneumoniae. The following applies: Streptococcus pneumoniae, read-out: Minimum Inhibitory Concentration (MIC).
Text: as §2

For assay [6], the system named is Candida albicans (ATCC 38247). The experiment in a line: Antifungal MIC. Type of assay: cell-based. The following applies: ATCC38247, read-out: MIC.
Text: as §2, with “employed. The results are presented in Table A below, which is keyed as follows: […]” for “employed.”

The subject of assay [7] is methycillin resistant Staphylococcus aureus ATCC 33591. The experiment in a line: Murine neutropenic thigh model. The format is in vivo, mice. Particulars: 50 mg/kg intravenously two hours post infection, 6 hr after treatment. The protocol:
A S. aureus ATCC 33591 culture was grown to log phase overnight and diluted in phosphate buffered saline (pH 7.2) to an optical density of about 0.1 at 600 nm, giving an approximate concentration of 10^8 cfu/mL. The suspension was diluted 1:100 in phosphate buffered saline (pH 7.2) for a final concentration of 10^6 cfu/mL.
Outbred female CF1 mice (approx. 20 gram body weight) were rendered neutropenic by treatment with cyclophosphamide (200 mg/kg body weight, intraperitoneal injection) at 2 and 4 days prior to inoculation. Groups of 5 mice were inoculated with 0.05 mL of the bacteria (approx. 10^6 cfu/mL) into the anterior thigh. Each group was treated intravenously two hours post infection with vehicle (phosphate buffered saline) or test compound. The mice were sacrificed at either 6 or 24 hrs after treatment and thighs were collected aseptically. Each thigh was weighed, placed into sterile saline, and homogenized. The tissue homogenates were diluted appropriately for plating on agar plates. Colony counts were recorded (cfu/gram) and compared to control groups.
In vivo efficacy was shown by a decrease in colony count (log cfu/gram of tissue) in the compound-treated animals when compared against the colony count in animals given only the vehicle.

Converted amounts (≈) assume the structure as drawn. Like-named read-outs stand apart in the source and are kept apart here. Where only a bound is given, the exact number is not on record here.

This is an account of results in patent US20040142971A1, “BENZOTHIOPHENE COMPOUNDS HAVING ANTIINFECTIVE ACTIVITY” (GeneSoft, Inc., priority 2001, published 2004).

With `Cn1cc(NC(=O)c2cc(NC(=O)c3cc(NC(=O)c4sc5ccccc5c4Cl)cn3C)cn2C)cc1C(=O)NCCN1CCOCC1` [Ib-1], the MIC was less than 4 µg/mL with B. Cereus ATCC 11778 (ATCC11778, read-out: Minimum Inhibitory Concentration (MIC)); less than 4 µg/mL in assay [1]; less than 4 µg/mL in assay [2]; less than 4 µg/mL in assay [3]; less than 4 µg/mL in the assay with S. aureus ATCC 33591 (ATCC33591, read-out: Minimum Inhibitory Concentration (MIC)); less than 4 µg/mL in the assay with S. aureus ATCC 43300. In addition, the MIC in assay [4] and in assay [5] was less than 4 µg/mL each time.
On to `Cn1cc(NC(=O)c2cc(NC(=O)c3cc(NC(=O)c4sc5ccccc5c4Cl)c[nH]3)cn2C)cc1C(=O)NCCN1CCCC1` [Ib-48], for which the MIC in the assay on B. Cereus ATCC 11778 (ATCC11778, A = B. Cereus ATCC 11778, read-out: Minimum Inhibitory Concentration (MIC)) was less than 4 µg/mL; in assay [1] (B = E. faecium ATCC 51559) it was 4 to 12 µg/mL (≈ 6.05 to 18.1 µM); in assay [2] (C = S. aureus ATCC 13709), less than 4 µg/mL; in assay [3] (D = S. aureus ATCC 27660) it was less than 4 µg/mL; in the assay with S. aureus ATCC 33591 (ATCC33591, E = S. aureus ATCC 33591, read-out: Minimum Inhibitory Concentration (MIC)) it was less than 4 µg/mL; in assay [4] (G = S. epidermidis ATCC 700586), less than 4 µg/mL. Besides, the MIC in assay [5] (H = S. pneumoniae ATCC 51422) and in assay [6] was less than 4 µg/mL each time. Further, in assay [7], the “Colony Count (log cfu/gram) Compound” value was found to be 4.74 log cfu/gram.
